According to PubChem BioAssay (NCI):
Where “and” joins values, the source holds several entries; their conditions need not be identical. Identical values can stand only once.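 These data come from cells grown in 96-well plates and exposed to compound for 48 hours at five concentrations. GI50 is the concentration that inhibits growth by half. At the TGI there is no net growth.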

How the values were obtained:
Test in all cases: NCI-60 cell line screen, 48 h
HCT-116 colon = system: HCT-116 colon
MALME-3M melanoma = system: MALME-3M melanoma
HS 578T breast = system: HS 578T breast
UACC-62 melanoma = system: UACC-62 melanoma
U251 CNS = system: U251 CNS
EKVX NSCLC = system: EKVX NSCLC
CAKI-1 renal = system: CAKI-1 renal
NCI-H460 lung = system: NCI-H460 lung
MOLT-4 leukemia = system: MOLT-4 leukemia
HOP-62 NSCLC = system: HOP-62 NSCLC
SF-295 CNS = system: SF-295 CNS
MDA-N = system: MDA-N
A549 NSCLC = system: A549 NSCLC
CCRF-CEM leukemia = system: CCRF-CEM leukemia
SW-620 colon = system: SW-620 colon
K-562 leukemia = system: K-562 leukemia
RXF 393 renal = system: RXF 393 renal
UO-31 renal = system: UO-31 renal
HCC-2998 colon = system: HCC-2998 colon
OVCAR-5 ovarian = system: OVCAR-5 ovarian
IGROV1 ovarian = system: IGROV1 ovarian
BT-549 breast = system: BT-549 breast
OVCAR-8 ovarian = system: OVCAR-8 ovarian
NCI/ADR-RES ovarian = system: NCI/ADR-RES ovarian
NCI-H23 lung = system: NCI-H23 lung
UACC-257 melanoma = system: UACC-257 melanoma
MCF7 breast = system: MCF7 breast
RPMI-8226 leukemia = system: RPMI-8226 leukemia
SF-268 CNS = system: SF-268 CNS
SN12C renal = system: SN12C renal
MDA-MB-435 = system: MDA-MB-435
TK-10 renal = system: TK-10 renal
A498 renal = system: A498 renal
SK-MEL-28 melanoma = system: SK-MEL-28 melanoma
HCT-15 colon = system: HCT-15 colon
SF-539 CNS = system: SF-539 CNS
OVCAR-4 ovarian = system: OVCAR-4 ovarian
ACHN renal = system: ACHN renal
SK-MEL-5 melanoma = system: SK-MEL-5 melanoma
NCI-H226 lung = system: NCI-H226 lung
SK-MEL-2 melanoma = system: SK-MEL-2 melanoma
SR leukemia = system: SR leukemia
SNB-19 CNS = system: SNB-19 CNS
SNB-75 CNS = system: SNB-75 CNS
MDA-MB-231 breast = system: MDA-MB-231 breast
COLO 205 colon = system: COLO 205 colon
LOX IMVI melanoma = system: LOX IMVI melanoma
KM12 colon = system: KM12 colon
786-0 renal = system: 786-0 renal
DU-145 prostate = system: DU-145 prostate
HT29 colon = system: HT29 colon
NCI-H522 lung = system: NCI-H522 lung
HOP-92 NSCLC = system: HOP-92 NSCLC
SK-OV-3 ovarian = system: SK-OV-3 ovarian
PC-3 prostate = system: PC-3 prostate
M14 melanoma = system: M14 melanoma
OVCAR-3 ovarian = system: OVCAR-3 ovarian
T-47D breast = system: T-47D breast
HL-60(TB) leukemia = system: HL-60(TB) leukemia

O=c1cc(/C=C/c2ccc(O)c(O)c2)cc(/C=C/c2ccc(O)c(O)c2)o1 was tested, and the GI50 (HCT-116 colon) was 4.17 µM, the TGI (HCT-116 colon) was 15.6 µM and 15.3 µM and the GI50 (MALME-3M melanoma) was 2.67 µM. For the same compound, the TGI (MALME-3M melanoma) was 22.2 µM and 19.1 µM, the GI50 (HS 578T breast) was 3.96 µM and the TGI (HS 578T breast) was 50 µM and 34 µM. For the same compound, the GI50 (UACC-62 melanoma) was 2.5 µM, the TGI (UACC-62 melanoma) was 16.6 µM and 6.05 µM and the GI50 (U251 CNS) was 3.61 µM. For the same compound, the TGI (U251 CNS) was 14.1 µM and 12.8 µM, the TGI (EKVX NSCLC) was 15 µM and 21.9 µM and the GI50 (CAKI-1 renal) was 4.92 µM. The TGI (CAKI-1 renal) was 31.9 µM and 14.6 µM, the GI50 (NCI-H460 lung) was 7.14 µM and the TGI (NCI-H460 lung) was 50 µM and 21.6 µM. The TGI (MOLT-4 leukemia) was 6.48 µM, the TGI (HOP-62 NSCLC) was 24.8 µM and 22.7 µM and the GI50 (SF-295 CNS) was 10.5 µM. The TGI (SF-295 CNS) was 19.8 µM and 22.2 µM, the GI50 (MDA-N) was 4.72 µM and the TGI (MDA-N) was 50 µM and 17.1 µM. For the same compound, the GI50 (A549 NSCLC) was 5.48 µM, the TGI (A549 NSCLC) was 50 µM and 18.9 µM and the GI50 (CCRF-CEM leukemia) was 2.53 µM. The TGI (CCRF-CEM leukemia) was 27.1 µM and 4.86 µM, the GI50 (SW-620 colon) was 3.05 µM and the TGI (SW-620 colon) was 50 µM and 12.3 µM. The TGI (K-562 leukemia) was 8.35 µM, the GI50 (RXF 393 renal) was 3.42 µM and the TGI (RXF 393 renal) was 18.9 µM and 9.11 µM. The TGI (UO-31 renal) was 14.6 µM, the TGI (HCC-2998 colon) was 19.3 µM and the GI50 (OVCAR-5 ovarian) was 18.3 µM. For the same compound, the TGI (OVCAR-5 ovarian) was 24.2 µM and 42.2 µM, the GI50 (IGROV1 ovarian) was 5.24 µM and the TGI (IGROV1 ovarian) was 37.5 µM and 18.1 µM. The GI50 (BT-549 breast) was 4.59 µM, the TGI (BT-549 breast) was 38.1 µM and 16.8 µM and the GI50 (OVCAR-8 ovarian) was 5.5 µM. For the same compound, the TGI (OVCAR-8 ovarian) was 50 µM and 32 µM, the GI50 (NCI/ADR-RES ovarian) was 12 µM and the TGI (NCI/ADR-RES ovarian) was 50 µM and 52.3 µM. The GI50 (NCI-H23 lung) was 3.49 µM, the TGI (NCI-H23 lung) was 41.9 µM and 20.8 µM and the GI50 (UACC-257 melanoma) was 9.98 µM. For the same compound, the TGI (UACC-257 melanoma) was 29.4 µM and 27.5 µM, the TGI (MCF7 breast) was 18.8 µM and the GI50 (RPMI-8226 leukemia) was 2.25 µM. The TGI (RPMI-8226 leukemia) was 14.9 µM and 6.7 µM, the GI50 (SF-268 CNS) was 4.17 µM and the TGI (SF-268 CNS) was 16.2 µM and 16.5 µM. For the same compound, the GI50 (SN12C renal) was 6.06 µM, the TGI (SN12C renal) was 25.2 µM and 23.7 µM and the GI50 (MDA-MB-435) was 3.15 µM. For the same compound, the TGI (MDA-MB-435) was 50 µM and 11.6 µM, the GI50 (TK-10 renal) was 9.1 µM and the TGI (TK-10 renal) was 50 µM and 20.9 µM. The TGI (A498 renal) was 23.4 µM, the TGI (SK-MEL-28 melanoma) was 50 µM and the GI50 (HCT-15 colon) was 4.47 µM. The TGI (HCT-15 colon) was 24.1 µM and 18.1 µM, the GI50 (SF-539 CNS) was 3 µM and the TGI (SF-539 CNS) was 17.9 µM and 10.7 µM. The GI50 (OVCAR-4 ovarian) was 3.17 µM, the TGI (OVCAR-4 ovarian) was 43.5 µM and 13.8 µM and the GI50 (ACHN renal) was 4.01 µM. The TGI (ACHN renal) was 18.8 µM and 14.5 µM, the GI50 (SK-MEL-5 melanoma) was 4.75 µM and the TGI (SK-MEL-5 melanoma) was 18.1 µM and 19 µM. For the same compound, the GI50 (NCI-H226 lung) was 11 µM, the TGI (NCI-H226 lung) was 35 µM and 33.4 µM and the TGI (SK-MEL-2 melanoma) was 22.7 µM and 34.5 µM. The GI50 (SR leukemia) was 1.99 µM, the TGI (SR leukemia) was 14.2 µM and 6.05 µM and the GI50 (SNB-19 CNS) was 5.8 µM. For the same compound, the TGI (SNB-19 CNS) was 15.7 µM and 18 µM, the GI50 (SNB-75 CNS) was 4.3 µM and the TGI (SNB-75 CNS) was 18.5 µM and 15.5 µM. The GI50 (MDA-MB-231 breast) was 13.3 µM, the TGI (MDA-MB-231 breast) was 28.3 µM and 39.8 µM and the GI50 (COLO 205 colon) was 19.1 µM. For the same compound, the TGI (COLO 205 colon) was 24.6 µM and 34.4 µM, the GI50 (LOX IMVI melanoma) was 5.19 µM and the TGI (LOX IMVI melanoma) was 50 µM and 19.4 µM. For the same compound, the GI50 (KM12 colon) was 5 µM, the TGI (KM12 colon) was 16 µM and 22.7 µM and the GI50 (786-0 renal) was 5.85 µM. The TGI (786-0 renal) was 50 µM and 23.2 µM, the GI50 (DU-145 prostate) was 5.29 µM and the TGI (DU-145 prostate) was 20.2 µM and 22.1 µM. The GI50 (HT29 colon) was 21.5 µM, the TGI (HT29 colon) was 23.7 µM and 56.8 µM and the GI50 (NCI-H522 lung) was 1.45 µM. For the same compound, the GI50 (HOP-92 NSCLC) was 5.16 µM, the TGI (HOP-92 NSCLC) was 47.6 µM and 17.3 µM and the GI50 (SK-OV-3 ovarian) was 13.1 µM. For the same compound, the TGI (SK-OV-3 ovarian) was 24.1 µM and 25.8 µM, the GI50 (PC-3 prostate) was 11 µM and the TGI (PC-3 prostate) was 19.9 µM and 27.7 µM. For the same compound, the GI50 (M14 melanoma) was 8.94 µM, the TGI (M14 melanoma) was 21.6 µM and 20.8 µM and the GI50 (OVCAR-3 ovarian) was 4.92 µM. For the same compound, the TGI (OVCAR-3 ovarian) was 15.2 µM and 22 µM, the GI50 (T-47D breast) was 1.95 µM and the TGI (T-47D breast) was 27.3 µM and 4.92 µM.
With CCOC(=O)c1cc2c([nH]1)c(OC(C)=O)cc1c2ccn1Cc1ccccc1 the TGI (HCT-116 colon) was > 100 µM, the TGI (MALME-3M melanoma) was > 100 µM and the TGI (HS 578T breast) was > 100 µM. The TGI (UACC-62 melanoma) was > 100 µM, the TGI (U251 CNS) was > 100 µM and the TGI (EKVX NSCLC) was > 100 µM. For the same compound, the TGI (CAKI-1 renal) was > 100 µM, the TGI (NCI-H460 lung) was > 100 µM and the TGI (MOLT-4 leukemia) was > 100 µM. For the same compound, the TGI (HOP-62 NSCLC) was > 100 µM, the TGI (SF-295 CNS) was > 100 µM and the TGI (MDA-N) was > 100 µM. For the same compound, the TGI (A549 NSCLC) was > 100 µM, the TGI (CCRF-CEM leukemia) was > 100 µM and the TGI (SW-620 colon) was > 100 µM. For the same compound, the TGI (K-562 leukemia) was > 100 µM, the TGI (RXF 393 renal) was > 100 µM and the TGI (UO-31 renal) was > 100 µM. The TGI (HCC-2998 colon) was > 100 µM, the TGI (OVCAR-5 ovarian) was > 100 µM and the TGI (IGROV1 ovarian) was > 100 µM. For the same compound, the TGI (BT-549 breast) was > 100 µM, the TGI (OVCAR-8 ovarian) was > 100 µM and the TGI (NCI/ADR-RES ovarian) was > 100 µM. The TGI (HL-60(TB) leukemia) was > 100 µM, the TGI (NCI-H23 lung) was > 100 µM and the TGI (UACC-257 melanoma) was > 100 µM. For the same compound, the TGI (MCF7 breast) was > 100 µM, the TGI (RPMI-8226 leukemia) was > 100 µM and the TGI (SF-268 CNS) was > 100 µM. The TGI (SN12C renal) was > 100 µM, the TGI (MDA-MB-435) was > 100 µM and the TGI (A498 renal) was > 100 µM. For the same compound, the TGI (SK-MEL-28 melanoma) was > 100 µM, the TGI (HCT-15 colon) was > 100 µM and the TGI (SF-539 CNS) was > 100 µM. For the same compound, the TGI (OVCAR-4 ovarian) was > 100 µM, the TGI (SK-MEL-5 melanoma) was > 100 µM and the TGI (NCI-H226 lung) was > 100 µM. The TGI (SK-MEL-2 melanoma) was > 100 µM, the TGI (SR leukemia) was > 100 µM and the TGI (SNB-19 CNS) was > 100 µM. The TGI (SNB-75 CNS) was > 100 µM, the TGI (MDA-MB-231 breast) was > 100 µM and the TGI (COLO 205 colon) was > 100 µM. The TGI (LOX IMVI melanoma) was > 100 µM, the TGI (KM12 colon) was > 100 µM and the TGI (786-0 renal) was > 100 µM. The TGI (DU-145 prostate) was > 100 µM, the TGI (HT29 colon) was > 100 µM and the TGI (HOP-92 NSCLC) was > 100 µM. For the same compound, the TGI (SK-OV-3 ovarian) was > 100 µM, the TGI (PC-3 prostate) was > 100 µM and the TGI (M14 melanoma) was > 100 µM. For the same compound, the TGI (OVCAR-3 ovarian) was > 100 µM and the TGI (T-47D breast) was > 100 µM.
